Target: T1, porcine pancreatic lipase (Sus scrofa, UniProt P00591)
T1 sequence (P00591 1-450): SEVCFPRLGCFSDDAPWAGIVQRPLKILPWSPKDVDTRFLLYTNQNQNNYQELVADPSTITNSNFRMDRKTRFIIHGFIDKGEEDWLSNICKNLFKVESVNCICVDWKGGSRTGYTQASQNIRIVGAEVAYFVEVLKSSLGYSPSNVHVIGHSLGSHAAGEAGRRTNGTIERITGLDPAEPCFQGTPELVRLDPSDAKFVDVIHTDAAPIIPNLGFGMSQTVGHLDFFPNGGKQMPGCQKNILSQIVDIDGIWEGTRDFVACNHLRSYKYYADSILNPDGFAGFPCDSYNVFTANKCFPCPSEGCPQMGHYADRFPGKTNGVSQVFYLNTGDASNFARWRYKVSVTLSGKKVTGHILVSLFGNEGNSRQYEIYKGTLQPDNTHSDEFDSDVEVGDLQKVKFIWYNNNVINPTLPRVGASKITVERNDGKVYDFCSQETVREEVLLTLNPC
Assay: Pancreatic lipase assay
Type: biochemical

`O=C(O[C@@H]1C=C[C@@H](OC(=O)c2ccccc2)[C@](O)(CO)[C@H]1O)c1ccccc1` (relative stereo) [Compound 1, (1R*,4R*,5S*,6S*)-5,6-dihydroxy-5-(hydroxymethyl)cyclohex-2-ene-1,4-diyl dibenzoate] was tested. Which IC50 did it give?
The IC50 was 11.2 µM.

— article PMC9583304 (ACS Omega, 2022)
